According to US20240325484A1, “COMPOSITION COMPRISING HORSE CHESTNUT EXTRACT” (ANGIOLAB, INC., priority 2021, published 2024):

Tested on: RAW264.7 cells
Assay: Cytotoxicity assay (XTT, cell viability)
Settings: 4 days, at concentrations of 2.5, 5, 10, and 25 μM (FIG. 7 to FIG. 10)
Method: The cells were treated with 50 μl of XTT reagent per well, then reacted for four hours. An absorbance change thereof was measured at 490 nm and 650 nm (reference wavelength) by ELISA (enzyme linked immunosorbent assay) reader (Molecular Devices, USA), and a cell viability was expressed as a percentage.

C[C@@H]1O[C@@H](Oc2c(-c3ccc(O)c(O)c3)oc3cc(O)cc(O)c3c2=O)[C@H](O)[C@H](O)[C@H]1O [quercitrin, Quercitrin]
cytotoxicity: no cytotoxicity
